The text below walks through data of US20240238424A1, “HETEROBIFUNCTIONAL COMPOUNDS AND METHODS OF TREATING DISEASE” (Halda Therapeutics OpCo, Inc., priority 2021, published 2024).

The target of this assay is T1, GSPT1 (Homo sapiens, UniProt P15170+Q96SW2).
T1 construct: host or cells: HEK293 LgBiT cell line
The experiment in a line: GSPT1 HiBit degradation assay. It is filed as cell-based. To be noted: HEK293 LgBiT cells expressing GSPT1_HiBiT, luminescence after 6 hours. The text has this: Promega developed a HEK293 cell line that constitutively expresses LgBiT protein and GSPT1_HiBiT fusion protein. When both proteins are present, the HiBiT portion of the fusion protein combines with LgBiT protein to form a functional luciferase enzyme. Endurazine, a cell permeable small molecule, is converted by cellular esterases into furimazine, which the luciferase enzyme uses as a substrate to generate luminescence. When GSPT1 is degraded, the HiBit is also degraded. This prevents formation of fully functional luciferase, leading to a loss in luminescence. GSPT1 degradation therefore correlates with a decrease in luminescence and can be measured continuously over time. The concentration of compound at which 50% GSPT1 degradation occurs (DC50) was calculated using this system.
• HEK293 LgBiT Cell line (Promega Custom) • Endurazine Substrate (Promega Cat. #N2570) • DMEM (Gibco Cat. #11995) • Penicillin/Streptomycin (Gibco Cat. #15140-122) • Heat Inactivated Fetal Bovine Serum (Gibco Cat. #A38400-01) • Hygromycin B (Gibco Cat. #10-687-010) • 384 Well TC Treated White Microplate (Perkin Elmer Cat. #6007680)
HEK293 LgBiT cells were cultured in DMEM Media supplemented with 10% FBS, 5% Pen/Strep, 200 μg/ml hygromycin and stored in an incubator set at 37° C. and 5% CO2. 18-24 hours prior to compound treatment, HEK293 LgBiT cells were seeded at 1000 cells/well in a 384-well microplate in 25 μl complete media. The plate was spun at 300 g for 30 seconds and stored in the incubator overnight. The next day, compounds were titrated in DMSO and added to media supplemented with endurazine substrate. A 25 ul aliquot of 2× compound/endurazine in media were then added to the 384-well microplate with seeded cells. (Endurazine was used at a final concentration of 0.5×). The plate was spun at 300 g for 30 seconds and stored in the incubator. After 6 hours the plate was read on a Perkin Elmer MultiMode Plate Reader Envision 2105 to measure luminescence signal.
(In general: The HiBiT peptide binds its large partner to form an active luciferase.)

Each structure is given as a SMILES string. A value given as a limit tells only on which side of the number the result lay.

T1 sequence (P15170 whole entry): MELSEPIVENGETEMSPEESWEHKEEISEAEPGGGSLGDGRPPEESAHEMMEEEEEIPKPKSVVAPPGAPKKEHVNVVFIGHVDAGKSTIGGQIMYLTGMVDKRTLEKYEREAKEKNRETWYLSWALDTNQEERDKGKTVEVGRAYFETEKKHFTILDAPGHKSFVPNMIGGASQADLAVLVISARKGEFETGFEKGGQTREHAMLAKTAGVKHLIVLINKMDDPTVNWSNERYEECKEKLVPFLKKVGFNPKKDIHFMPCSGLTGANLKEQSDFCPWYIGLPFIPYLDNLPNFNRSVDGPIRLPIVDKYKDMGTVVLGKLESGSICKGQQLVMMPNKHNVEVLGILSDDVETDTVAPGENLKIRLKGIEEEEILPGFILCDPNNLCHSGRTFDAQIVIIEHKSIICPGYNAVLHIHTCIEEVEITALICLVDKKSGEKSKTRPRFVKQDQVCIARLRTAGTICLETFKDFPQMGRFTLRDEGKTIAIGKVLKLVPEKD
T1 sequence (Q96SW2 whole entry): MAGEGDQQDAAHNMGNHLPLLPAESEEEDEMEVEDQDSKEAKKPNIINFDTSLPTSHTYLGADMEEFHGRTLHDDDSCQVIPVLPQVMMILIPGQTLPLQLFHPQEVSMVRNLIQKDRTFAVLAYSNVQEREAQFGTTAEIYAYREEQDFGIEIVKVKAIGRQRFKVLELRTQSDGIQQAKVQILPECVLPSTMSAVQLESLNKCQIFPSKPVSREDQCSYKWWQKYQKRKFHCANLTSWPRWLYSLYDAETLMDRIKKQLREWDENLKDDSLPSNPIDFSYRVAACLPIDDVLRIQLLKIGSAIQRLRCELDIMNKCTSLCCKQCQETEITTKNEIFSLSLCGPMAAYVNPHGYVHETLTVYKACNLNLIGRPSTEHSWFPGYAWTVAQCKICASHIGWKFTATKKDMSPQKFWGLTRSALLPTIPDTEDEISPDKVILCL
T1 sequence (Q16531 whole entry partner): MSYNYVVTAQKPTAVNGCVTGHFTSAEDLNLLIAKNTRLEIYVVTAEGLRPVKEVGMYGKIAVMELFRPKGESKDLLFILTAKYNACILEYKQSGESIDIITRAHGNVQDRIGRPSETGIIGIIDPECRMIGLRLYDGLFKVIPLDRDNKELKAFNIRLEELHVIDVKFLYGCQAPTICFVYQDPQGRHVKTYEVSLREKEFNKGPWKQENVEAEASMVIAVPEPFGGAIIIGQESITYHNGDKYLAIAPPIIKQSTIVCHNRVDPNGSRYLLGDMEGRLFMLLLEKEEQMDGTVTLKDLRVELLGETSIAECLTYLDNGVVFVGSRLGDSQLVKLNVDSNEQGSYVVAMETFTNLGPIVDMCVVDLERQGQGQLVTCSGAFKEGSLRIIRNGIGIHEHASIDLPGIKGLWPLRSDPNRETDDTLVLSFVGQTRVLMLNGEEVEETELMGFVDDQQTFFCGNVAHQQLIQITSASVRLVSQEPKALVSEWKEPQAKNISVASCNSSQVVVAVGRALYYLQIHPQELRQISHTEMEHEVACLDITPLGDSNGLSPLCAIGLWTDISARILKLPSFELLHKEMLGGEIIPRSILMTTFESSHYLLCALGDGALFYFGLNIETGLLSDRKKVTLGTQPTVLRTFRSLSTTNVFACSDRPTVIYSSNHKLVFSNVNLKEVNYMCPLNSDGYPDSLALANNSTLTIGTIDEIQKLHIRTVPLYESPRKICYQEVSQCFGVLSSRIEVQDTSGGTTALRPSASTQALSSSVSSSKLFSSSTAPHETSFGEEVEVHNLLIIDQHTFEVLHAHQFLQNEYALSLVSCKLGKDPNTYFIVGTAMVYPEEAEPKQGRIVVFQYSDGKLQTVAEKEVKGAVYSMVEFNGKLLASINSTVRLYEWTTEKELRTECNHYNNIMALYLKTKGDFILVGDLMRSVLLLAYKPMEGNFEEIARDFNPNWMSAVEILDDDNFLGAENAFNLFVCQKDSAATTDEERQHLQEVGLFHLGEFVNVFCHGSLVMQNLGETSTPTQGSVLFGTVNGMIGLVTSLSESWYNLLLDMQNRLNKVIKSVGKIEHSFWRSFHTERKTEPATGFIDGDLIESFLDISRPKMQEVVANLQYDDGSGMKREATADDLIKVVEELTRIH

Usually DC50 stands for the concentration giving 50% degradation. Turning to `C=C(F)C(=O)N1CCN(c2nc(OC[C@H]3CCCN3CCCOCCOCCOCCOCCOCCOCCCCCCCCc3cc(Cl)cc(NC(=O)NCc4ccc5c(c4)CN(C4CCC(=O)NC4=O)C5=O)c3)nc3c2CCN(c2cccc4cccc(Cl)c24)C3)C[C@H]1CC#N` (some centres unmarked) [Compound I-71], under “Table 3”, the DC50 was < 250 nM.

`CCN(CCOCCOCCOCCOCCCCCCCCc1cc(Cl)cc(NC(=O)NCc2ccc3c(c2)CN(C2CCC(=O)NC2=O)C3=O)c1)CCOc1ccc(C(=O)c2c(-c3ccc(O)cc3)sc3cc(O)ccc23)cc1` (centres unmarked) [Compound I-77]: the DC50 (Table 3A) was < 250 nM.

Consider `C=C(F)C(=O)N1CCN(c2nc(OC[C@@H]3CCCN3CCCOCCOCCOCCOCCOCCOCCOCCOCCCCCCCCc3cc(Cl)cc(NC(=O)NCc4ccc5c(c4)CN(C4CCC(=O)NC4=O)C5=O)c3)nc3c2CCN(c2cccc4cccc(Cl)c24)C3)C[C@@H]1CC#N` (some centres unmarked) [Compound I-78], for which the DC50 (Table 3A) was < 250 nM.

Turning to `C=C(F)C(=O)N1CCN(c2nc(OC[C@@H]3CCCN3CCCOCCOCCOCCOCCOCCOCCOCCOCCOCCOCCCCCCCCc3cc(Cl)cc(NC(=O)NCc4ccc5c(c4)CN(C4CCC(=O)NC4=O)C5=O)c3)nc3c2CCN(c2cccc4cccc(Cl)c24)C3)C[C@@H]1CC#N` (some centres unmarked) [Compound I-80], under “Table 3A”, the DC50 lay within 250 to 5000 nM.

As for `CN(C/C=C/C(=O)N1CCN(c2nc(OC[C@@H]3CCCN3C)nc3c2CCN(c2cccc4cccc(Cl)c24)C3)C[C@@H]1CC#N)CCOCCOCCOCCOCCCCCCCCc1cc(Cl)cc(NC(=O)NCc2ccc3c(c2)CN(C2CCC(=O)NC2=O)C3=O)c1` (some centres unmarked) [Compound I-81], under “Table 3A”, the DC50 was < 250 nM.

In the case of `Nc1ncnc2c1c(-c1ccc(Oc3ccccc3)cc1)nn2[C@@H]1CCCN(C(=O)/C=C/COCCOCCOCCOCCOCCCCCCCCc2cc(Cl)cc(NC(=O)NCc3ccc4c(c3)CN(C3CCC(=O)NC3=O)C4=O)c2)C1` (some centres unmarked) [Compound I-82], the DC50 (Table 3A) was < 250 nM.

`CN(C/C=C/C(=O)N1CCC[C@@H](n2nc(-c3ccc(Oc4ccccc4)cc3)c3c(N)ncnc32)C1)CCOCCOCCOCCOCCOCCOCCOCCOCCOCCOCCCCCCCCc1cc(Cl)cc(NC(=O)NCc2ccc3c(c2)CN(C2CCC(=O)NC2=O)C3=O)c1` (some centres unmarked) [Compound I-83]: for the setting “Table 3A”, the DC50 fell in the range of 250 to 5000 nM.

As to `CN(C/C=C/C(=O)N1CCN(c2nc(OC[C@@H]3CCCN3C)nc3c2CCN(c2cccc4cccc(Cl)c24)C3)C[C@@H]1CC#N)CCOCCOCCOCCOCCOCCOCCCCCCCCc1cc(Cl)cc(NC(=O)NCc2ccc3c(c2)CN(C2CCC(=O)NC2=O)C3=O)c1` (some centres unmarked) [Compound I-84], the DC50 (Table 3A) was < 250 nM.

For `Nc1ncnc2c1c(-c1ccc(Oc3ccccc3)cc1)nn2[C@@H]1CCCN(C(=O)/C=C/COCCOCCOCCOCCOCCOCCOCCCCCCCCc2cc(Cl)cc(NC(=O)NCc3ccc4c(c3)CN(C3CCC(=O)NC3=O)C4=O)c2)C1` (some centres unmarked) [Compound I-85], the DC50 (Table 3A) is < 250 nM.

For `CN(C/C=C/C(=O)N1CCN(c2nc(OC[C@H]3CCCN3C)nc3c2CCN(c2cccc4cccc(Cl)c24)C3)C[C@@H]1CC#N)CCOCCOCCOCCOCCOCCOCCOCCOCCCCCCCCc1cc(Cl)cc(NC(=O)NCc2ccc3c(c2)CN(C2CCC(=O)NC2=O)C3=O)c1` (some centres unmarked) [Compound I-86], the DC50 (Table 3A) is 250 to 5000 nM.

In turn, `CN(C/C=C/C(=O)N1CCN(c2nc(OC[C@@H]3CCCN3C)nc3c2CCN(c2cccc4cccc(Cl)c24)C3)C[C@@H]1CC#N)CCOCCOCCOCCOCCOCCOCCOCCOCCOCCOCCCCCCCCc1cc(Cl)cc(NC(=O)NCc2ccc3c(c2)CN(C2CCC(=O)NC2=O)C3=O)c1` (some centres unmarked) [Compound I-87] returned a DC50 (Table 3A) of 250 to 5000 nM.

In the case of `CN(C/C=C/C(=O)N1CCN(c2nc(OC[C@@H]3CCCN3C)nc3c2CCN(c2cccc4cccc(Cl)c24)C3)C[C@@H]1CC#N)CCOCCOCCOCCOCCOCCOCCOCCOCCOCCOCCOCCOCCCCCCCCc1cc(Cl)cc(NC(=O)NCc2ccc3c(c2)CN(C2CCC(=O)NC2=O)C3=O)c1` (some centres unmarked) [Compound I-88], the DC50 (Table 3A) is 250 to 5000 nM.

With `Nc1ncnc2c1c(-c1ccc(Oc3ccccc3)cc1)nn2[C@@H]1CCCN(C(=O)/C=C/COCCOCCOCCOCCOCCOCCOCCOCCOCCCCCCCCc2cc(Cl)cc(NC(=O)NCc3ccc4c(c3)CN(C3CCC(=O)NC3=O)C4=O)c2)C1` (some centres unmarked) [Compound I-93], the DC50 (Table 3A) is < 250 nM.

In turn, `Nc1ncnc2c1c(-c1ccc(Oc3ccccc3)cc1)nn2[C@@H]1CCCN(C(=O)/C=C/COCCOCCOCCOCCOCCOCCOCCOCCOCCOCCOCCCCCCCCc2cc(Cl)cc(NC(=O)NCc3ccc4c(c3)CN(C3CCC(=O)NC3=O)C4=O)c2)C1` (some centres unmarked) [Compound I-94] had a DC50 (Table 3A) of 250 to 5000 nM.

For the compound `Cc1c(NC(=O)c2ccc(C3CC3)cc2F)cc(F)cc1-c1ncnc(N)c1OCCN(C)C(=O)/C=C/CN(C)CCOCCOCCOCCOCCCCCCCCc1cc(Cl)cc(NC(=O)NCc2ccc3c(c2)CN(C2CCC(=O)NC2=O)C3=O)c1` (centres unmarked) [Compound I-96], the DC50 (Table 3A) was < 250 nM.

Consider `Cc1c(NC(=O)c2ccc(C3CC3)cc2F)cc(F)cc1-c1ncnc(N)c1OCCN(C)C(=O)/C=C/CN(C)CCOCCOCCOCCOCCOCCOCCCCCCCCc1cc(Cl)cc(NC(=O)NCc2ccc3c(c2)CN(C2CCC(=O)NC2=O)C3=O)c1` (centres unmarked) [Compound I-97], for which the DC50 (Table 3A) is < 250 nM.

For `Cc1c(NC(=O)c2ccc(C3CC3)cc2F)cc(F)cc1-c1ncnc(N)c1OCCN(C)C(=O)/C=C/CN(C)CCOCCOCCOCCOCCOCCOCCOCCOCCOCCOCCCCCCCCc1cc(Cl)cc(NC(=O)NCc2ccc3c(c2)CN(C2CCC(=O)NC2=O)C3=O)c1` (centres unmarked) [Compound I-98], for the setting “Table 3A”, the DC50 is < 250 nM.

The compound `C=C(F)C(=O)N1CCN(c2nc(OC[C@@H]3C[C@@H](OCCOCCOCCOCCOCCCCCCCCc4cccc(NC(=O)NCc5ccc6c(c5)CN(C5CCC(=O)NC5=O)C6=O)c4)CN3C)nc3c2CCN(c2cccc4cccc(Cl)c24)C3)C[C@@H]1CC#N` (some centres unmarked) [Compound I-99] registered a DC50 (Table 3A) of 250 to 5000 nM.

In the case of `CCC(=O)N1CCN(c2nc(OC[C@@H]3CCCN3CCOCCOCCOCCOCCOCCOCCOCCOCCOCCOCCOCCOCCOCCOCCCCCCCCc3cc(Cl)cc(NC(=O)NCc4ccc5c(c4)CN(C4CCC(=O)NC4=O)C5=O)c3)nc3c2CCN(c2cccc4cccc(Cl)c24)C3)CC1CC#N` (some centres unmarked) [Compound I-103], the DC50 (Table 3A) is 250 to 5000 nM.

In the case of `CN(C/C=C/C(=O)N1CCC[C@@H](n2nc(-c3ccc(Oc4ccccc4)cc3)c3c(N)ncnc32)C1)CCOCCOCCOCCOCCOCCCCCc1cc(Cl)cc(NC(=O)NCc2ccc3c(c2)CN(C2CCC(=O)NC2=O)C3=O)c1` (some centres unmarked) [Compound I-104], the half-maximal degradation concentration (DC50) (Table 3A) was in the range of 250 to 5000 nM.

Take `Cc1c(NC(=O)c2ccc(C3CC3)cc2F)cc(F)cc1-c1ncnc(N)c1OCCN(C)C(=O)/C=C/CN(C)CCOCCOCCOCCOCCOCCCCCc1cc(Cl)cc(NC(=O)NCc2ccc3c(c2)CN(C2CCC(=O)NC2=O)C3=O)c1` (centres unmarked) [Compound I-105]: the DC50 (Table 3A) was < 250 nM.

`CCC(=O)N1CCN(c2nc(OC[C@@H]3CCCN3CCOCCOCCOCCOCCOCCOCCOCCOCCOCCOCCOCCOCCOCCOCCCCCCCCc3cc(Cl)cc(NC(=O)NCc4ccc5c(c4)CN(C4CCC(=O)NC4=O)C5=O)c3)nc3c2CCN(c2cccc4cccc(Cl)c24)C3)C[C@@H]1CC#N` (some centres unmarked) [Compound I-106] displayed a DC50 (Table 3A) of 250 to 5000 nM.

Consider `CN(C/C=C/C(=O)N1CCN(c2nc(OC[C@@H]3CCCN3C)nc3c2CCN(c2cccc4cccc(Cl)c24)C3)C[C@@H]1CC#N)CCOCCOCCOCCOCCOCCCCCc1cc(Cl)cc(NC(=O)NCc2ccc3c(c2)CN(C2CCC(=O)NC2=O)C3=O)c1` (some centres unmarked) [Compound I-108], for which, for the setting “Table 3A”, the DC50 was 250 to 5000 nM.

The compound `CN(C/C=C/C(=O)N1CCC[C@@H](n2nc(-c3ccc(Oc4ccccc4)cc3)c3c(N)ncnc32)C1)CCOCCOCCOCCCCCc1cc(Cl)cc(NC(=O)NCc2ccc3c(c2)CN(C2CCC(=O)NC2=O)C3=O)c1` (some centres unmarked) [Compound I-110] displayed a 50% degradation concentration (DC50) (Table 3A) of 250 to 5000 nM.

The compound `CN(C/C=C/C(=O)N1CCC[C@@H](n2nc(-c3ccc(Oc4ccccc4)cc3)c3c(N)ncnc32)C1)CCOCCOCCOCCOCCOCCOCCOCCCCCc1cc(Cl)cc(NC(=O)NCc2ccc3c(c2)CN(C2CCC(=O)NC2=O)C3=O)c1` (some centres unmarked) [Compound I-111] displayed a DC50 (Table 3A) of 250 to 5000 nM.

For the compound `Cc1c(NC(=O)c2ccc(C3CC3)cc2F)cc(F)cc1-c1ncnc(N)c1OCCN(C)C(=O)/C=C/CN(C)CCOCCOCCOCCCCCc1cc(Cl)cc(NC(=O)NCc2ccc3c(c2)CN(C2CCC(=O)NC2=O)C3=O)c1` (centres unmarked) [Compound I-112], the DC50 (Table 3A) lay within 250 to 5000 nM.

For `Cc1c(NC(=O)c2ccc(C3CC3)cc2F)cc(F)cc1-c1ncnc(N)c1OCCN(C)C(=O)/C=C/CN(C)CCOCCOCCOCCOCCOCCOCCOCCCCCc1cc(Cl)cc(NC(=O)NCc2ccc3c(c2)CN(C2CCC(=O)NC2=O)C3=O)c1` (centres unmarked) [Compound I-113], for the setting “Table 3A”, the DC50 lay in the range of 250 to 5000 nM.

As to `Cc1ccc(NC(=O)NC(CCCCCOCCOCCOCCOCCOCCN(C)C/C=C/C(=O)N2CCN(c3nc(OC[C@@H]4CCCN4C)nc4c3CCN(c3cccc5cccc(Cl)c35)C4)C[C@@H]2CC#N)c2ccc3c(c2)CN(C2CCC(=O)NC2=O)C3=O)cc1Cl` (some centres unmarked) [Compound I-114], the DC50 (Table 3A) was > 10000 nM.

The compound `Cc1ccc(NC(=O)NC(CCCCCOCCOCCOCCN(C)C/C=C/C(=O)N2CCN(c3nc(OC[C@@H]4CCCN4C)nc4c3CCN(c3cccc5cccc(Cl)c35)C4)C[C@@H]2CC#N)c2ccc3c(c2)CN(C2CCC(=O)NC2=O)C3=O)cc1Cl` (some centres unmarked) [Compound I-115] displayed a DC50 (Table 3A) of 5000 to 10000 nM.
